Data published in US20060229433A1, “Modified antiviral peptides with increased activity and cell membrane affinity” (priority 2003, published 2006).
Several values for one entry are separate records, joined by “and”; a condition that tells them apart may be missing. Equal values may be shown once. Peptide text beside a SMILES is read from it.

Key:
Format in all cases: cell-based
[1] = test system: HIV-1 NL 4-3; test: HIV-1 infection of C8166 cells (syncytia formation, p24 ELISA) with HIV-1 NL 4-3; set-up: key to syncitia formed, Day 4 / syncitia formed, Day 5 / syncitia formed, Day 6 / syncitia formed, Day 7: ++, +, (+), (+)− and − represent decreasing numbers of syncitia formed; ++, +, (+), (+)− and − represent decreasing numbers of syncitia formed; ++, +, (+), (+)− and − represent decreasing numbers of syncitia formed; ++, +, (+), (+)− and − represent decreasing numbers of syncitia formed; ++, +, (+), (+)− and − represent decreasing numbers of syncitia formed
In short: (§1)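 Infection was read out as syncytia and as cell-free p24 in supernatants (ELISA) from C8166 cells that received HIV-1 (1000 TCID50/ml, 1 h, 37 °C) after a 1 h peptide pretreatment. Peptide stayed on before, during and after adsorption. Toxicity was checked by daily trypan-blue counts.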

[2] = test system: HIV-1 NDK; test: HIV-1 infection of C8166 cells (syncytia formation, p24 ELISA) with HIV-1 NDK; set-up: key to syncitia formed, Day 4 / syncitia formed, Day 5 / syncitia formed, Day 6 / syncitia formed, Day 7: ++, +, (+), (+)− and − represent decreasing numbers of syncitia formed; ++, +, (+), (+)− and − represent decreasing numbers of syncitia formed; ++, +, (+), (+)− and − represent decreasing numbers of syncitia formed; ++, +, (+), (+)− and − represent decreasing numbers of syncitia formed; ++, +, (+), (+)− and − represent decreasing numbers of syncitia formed; conditions: for P 24: P 24 after Day 7
In short: as §1

[3] = test system: HIV-1 NL 4-3; test: HIV-1 infection of C8166 cells (syncytia formation, p24 ELISA) with HIV-1 NL 4-3; set-up: key: ++, +, (+), (+)− and − represent decreasing numbers of syncitia formed; ++, +, (+), (+)− and − represent decreasing numbers of syncitia formed; ++, +, (+), (+)− and − represent decreasing numbers of syncitia formed; ++, +, (+), (+)− and − represent decreasing numbers of syncitia formed; ++, +, (+), (+)− and − represent decreasing numbers of syncitia formed; conditions: Table 6
In short: as §1

[4] = C8166 cells, HIV-1 subtype B NL 4-3, Table 9, two lines = tested twice, 8 days apart

N=C(N)NCCC[C@H](NC(=O)CNC(=O)[C@@H]1CCCN1C(=O)CN)C(=O)O [GPGR, reference compound] (H-GPGR-OH; N-terminus and C-terminus assumed)
Day 7 syncitia formed ([1]; 0.005 μM, Table 6): ++/T
syncitia formed, Day 4 ([1]; 0.01 μM, C8166 cells): (+)
syncitia formed, Day 5 ([1]; 0.01 μM, C8166 cells): +
syncitia formed, Day 6 ([1]; 0.01 μM, C8166 cells): ++
syncitia formed, Day 7 ([1]; 0.01 μM, Day 7, C8166 cells): ++
P 24 ([1]; 0.01 μM, P 24 after Day 7, C8166 cells): 23810 pg/mL
syncitia formed, Day 4 ([1]; 0.05 μM, C8166 cells): (+)
syncitia formed, Day 5 ([1]; 0.05 μM, C8166 cells): +
syncitia formed, Day 6 ([1]; 0.05 μM, C8166 cells): +
syncitia formed, Day 7 ([1]; 0.05 μM, Day 7, C8166 cells): ++
P 24 ([1]; 0.05 μM, P 24 after Day 7, C8166 cells): 13810 pg/mL and 12980 pg/mL
syncitia formed, Day 4 ([1]; 0.1 μM, C8166 cells): −
syncitia formed, Day 5 ([1]; 0.1 μM, C8166 cells): (+)
syncitia formed, Day 6 ([1]; 0.1 μM, C8166 cells): +
syncitia formed, Day 7 ([1]; 0.1 μM, Day 7, C8166 cells): +
syncitia formed, Day 4 ([1]; 0.5 μM, C8166 cells): −
syncitia formed, Day 5 ([1]; 0.5 μM, C8166 cells): −
syncitia formed, Day 6 ([1]; 0.5 μM, C8166 cells): −
syncitia formed, Day 7 ([1]; 0.5 μM, Day 7, C8166 cells): +
P 24 ([1]; 0.5 μM, P 24 after Day 7, C8166 cells): 23000 pg/mL and 15810 pg/mL
syncitia formed, Day 4 ([1]; 1 μM, C8166 cells): −
syncitia formed, Day 5 ([1]; 1 μM, C8166 cells): −
syncitia formed, Day 6 ([1]; 1 μM, C8166 cells): −
syncitia formed, Day 7 ([1]; 1 μM, Day 7, C8166 cells): (+)
P 24 ([1]; 1 μM, P 24 after Day 7, C8166 cells): 316 pg/mL and 343 pg/mL
syncitia formed, Day 4 ([1]; 5 μM, C8166 cells): −
syncitia formed, Day 5 ([1]; 5 μM, C8166 cells): −
syncitia formed, Day 6 ([1]; 5 μM, C8166 cells): −
syncitia formed, Day 7 ([1]; 5 μM, Day 7, C8166 cells): (+)
P 24 ([1]; 5 μM, P 24 after Day 7, C8166 cells): 152 pg/mL
IC50 [1, 4]: 60 nM and 100 nM
IC100 [1, 4]: 5 µM and >5 µM
P 24 ([1]; Day 7, 0.005 μM, Table 6): 23810 pg/mL
P 24 ([1]; Day 7, 0.01 μM, Table 6): 23810 pg/mL
P 24 ([1]; Day 7, 0.1 μM, Table 6): 5810 pg/mL and 10110 pg/mL
P 24 ([1]; Day 7, 0.5 μM, Table 6): 2507 pg/mL and 2840 pg/mL
syncitia formed, Day 4 ([2]; 0.005 μM): −
syncitia formed, Day 5 ([2]; 0.005 μM): +
syncitia formed, Day 6 ([2]; 0.005 μM): ++
syncitia formed, Day 7 ([2]; 0.005 μM): ++/T
P 24 ([2]; 0.005 μM): 23810 pg/mL
syncitia formed, Day 4 ([2]; 0.01 μM): −
syncitia formed, Day 5 ([2]; 0.01 μM): +
syncitia formed, Day 6 ([2]; 0.01 μM): ++
syncitia formed, Day 7 ([2]; 0.01 μM): ++
P 24 ([2]; 0.01 μM): 23810 pg/mL
syncitia formed, Day 4 ([2]; 0.05 μM): −
syncitia formed, Day 5 ([2]; 0.05 μM): +
syncitia formed, Day 6 ([2]; 0.05 μM): ++
syncitia formed, Day 7 ([2]; 0.05 μM): ++
P 24 ([2]; 0.05 μM): 23810 pg/mL
syncitia formed, Day 4 ([2]; 0.1 μM): −
syncitia formed, Day 5 ([2]; 0.1 μM): (+)
syncitia formed, Day 6 ([2]; 0.1 μM): ++
syncitia formed, Day 7 ([2]; 0.1 μM): ++
P 24 ([2]; 0.1 μM): 21810 pg/mL and 23870 pg/mL
syncitia formed, Day 4 ([2]; 0.5 μM): −
syncitia formed, Day 5 ([2]; 0.5 μM): (+)
syncitia formed, Day 6 ([2]; 0.5 μM): ++
syncitia formed, Day 7 ([2]; 0.5 μM): ++
P 24 ([2]; 0.5 μM): 9810 pg/mL and 15856 pg/mL
syncitia formed, Day 4 ([2]; 1 μM): −
syncitia formed, Day 5 ([2]; 1 μM): −
syncitia formed, Day 6 ([2]; 1 μM): +
syncitia formed, Day 7 ([2]; 1 μM): ++
P 24 ([2]; 1 μM): 9870 pg/mL and 13890 pg/mL
syncitia formed, Day 4 ([2]; 5 μM): −
syncitia formed, Day 5 ([2]; 5 μM): −
syncitia formed, Day 6 ([2]; 5 μM): +
syncitia formed, Day 7 ([2]; 5 μM): ++
IC50 ([2]; HIV 1 NDK, Table 10): 500 nM
IC100 ([2]; HIV 1 NDK, Table 10): >5 µM
Day 4 syncitia formed ([3]; 0.005 μM): −
Day 5 syncitia formed ([3]; 0.005 μM): ++
Day 6 syncitia formed ([3]; 0.005 μM): ++
Day 4 syncitia formed ([3]; 0.01 μM): −
Day 5 syncitia formed ([3]; 0.01 μM): +
Day 6 syncitia formed ([3]; 0.01 μM): ++
Day 7 syncitia formed ([3]; 0.01 μM): ++
Day 4 syncitia formed ([3]; 0.05 μM): −
Day 5 syncitia formed ([3]; 0.05 μM): +
Day 6 syncitia formed ([3]; 0.05 μM): +
Day 7 syncitia formed ([3]; 0.05 μM): ++
Day 4 syncitia formed ([3]; 0.1 μM): −
Day 5 syncitia formed ([3]; 0.1 μM): (+)
Day 6 syncitia formed ([3]; 0.1 μM): +
Day 7 syncitia formed ([3]; 0.1 μM): +
Day 4 syncitia formed ([3]; 0.5 μM): −
Day 5 syncitia formed ([3]; 0.5 μM): −
Day 6 syncitia formed ([3]; 0.5 μM): −
Day 7 syncitia formed ([3]; 0.5 μM): +
Day 4 syncitia formed ([3]; 1 μM): −
Day 5 syncitia formed ([3]; 1 μM): −
Day 6 syncitia formed ([3]; 1 μM): −
Day 7 syncitia formed ([3]; 1 μM): +
Day 4 syncitia formed ([3]; 5 μM): −
Day 5 syncitia formed ([3]; 5 μM): −
Day 6 syncitia formed ([3]; 5 μM): −
Day 7 syncitia formed ([3]; 5 μM): −
